The values below come from PubChem BioAssay AID449750 (Broad Institute, 2010).

For orientation: AC50 means the concentration at which the activity in the assay is half-maximal.

Calls of active or inactive are those of the source. The rule behind the calls is not given here.

This assay can be described thus: non-covalent RecA intein splicing inhibitors, dose response, biochemical, cell-free, fluorescence, secondary screen (AID 449750).
Turning to `CC(c1ccc(O)cc1)(c1ccc(O)cc1)c1ccc(CCBr)cc1`, the AC50 was 11.8 µM. To `Cc1[nH][nH]c(=O)c1C(c1ccc(F)cc1)c1c(C)[nH][nH]c1=O` belongs 11.9 µM; to `Cc1[nH]nc2c1C(c1ccc(-c3ccc(Cl)cc3)o1)C(C#N)=C(N)O2` (stereo not drawn), 39.1 µM; to `COc1ccc(N(Cc2cc(=O)[nH]c3ccccc23)C(=O)CCl)cc1`, 8.33 µM. To `Cc1ccc(C(c2c(C)[nH][nH]c2=O)c2c(C)[nH][nH]c2=O)cc1[N+](=O)[O-]` belongs 32.1 µM. In the case of `CCOC(=O)c1nn(-c2ccc(C)cc2)c(=O)c2c(N)scc12`, the AC50 is > 38 µM (inactive). Regarding `O=C1C(Cl)=C(NCCN2CCCCC2)C(=O)c2ccccc21`, the AC50 is 13.3 µM. As for `CC(/C=C1\SC(=S)N(NC(=O)c2cccc(O)c2)C1=O)=C\c1ccccc1`, the AC50 was 20.9 µM.

For `CC(=O)Oc1cc2c(cc1Cl)C1(CC(c3ccccc3Cl)O2)CC(C)(C)NC(=S)N1` (stereo not drawn), the AC50 was 23.8 µM.

`COc1ccc2[nH]c3c(Cl)ncnc3c2c1`: the AC50 is > 38 µM (inactive).

Turning to `COc1cc(C2C(C#N)=C(N)Oc3n[nH]c(-c4cccnc4)c32)cc(Br)c1O` (stereo not drawn), the AC50 was 4.01 µM.

Turning to `C=CS(=O)c1sc(Cl)c(N2CCOCC2)c1[N+](=O)[O-]` (stereo not drawn), the AC50 was > 38 µM (inactive). In the case of `CC(C)(C)NC(=O)C(c1ccc(Cl)cc1)N(Cc1ccco1)C(=O)CCl` (stereo not drawn), the AC50 was 11.6 µM. For `Cc1[nH]nc2c1C(c1cccs1)C(C#N)=C(N)O2` (stereo not drawn), the AC50 is > 38 µM (inactive). As for `CCOC(=O)Cc1[nH]nc2c1C(c1cccc(OC)c1OC)C(C#N)=C(N)O2` (stereo not drawn), the AC50 was 11.5 µM.

With `CC(=O)Nc1ccc(S(=O)(=O)NC2=C(N3CCN(c4ccc(F)cc4)CC3)C(=O)c3ccccc3C2=O)cc1`, the AC50 was 26.7 µM. Take `O=C(NC1CCCCC1)C(c1cccnc1)N(C(=O)CCl)c1ccc(F)cc1` (stereo not drawn): the AC50 was 5.58 µM. Regarding `O=C1C(Cl)=C(N2CCCCC2)C(=O)N1c1ccccc1`, the AC50 was > 12 µM (inactive).

Take `Cc1sc2ncnc(Sc3nnnn3-c3ccccc3)c2c1C`: the AC50 is > 38 µM (inactive). `O=C(CNC(=O)C1COc2ccccc2O1)N/N=C\c1ccccc1Cl` (stereo not drawn): the AC50 is > 38 µM (inactive).

For `C/C(=N/NC(=O)Cc1cc(=O)[nH][nH]1)c1ccc([N+](=O)[O-])cc1`, the AC50 is 21.5 µM. Turning to `COc1ccc(Br)cc1[C@H]1[C@@H]2C=CCC[C@@]2(C)C(=O)N1Cc1ccccc1`, the AC50 is > 38 µM (inactive). `Cc1cccc(N2CC(C(=O)OCC(=O)c3ccc(OC(=O)c4cccs4)cc3)CC2=O)c1C` (stereo not drawn): the AC50 was > 38 µM (inactive).

As for `COc1cc(C=C2C(=O)c3ccccc3C2=O)ccc1O`, the AC50 is > 38 µM (inactive). Regarding `CC(C)(C)c1cc(C(c2cccnc2)N2CCN(CCO)CC2)cc(C(C)(C)C)c1O` (stereo not drawn), the half-maximal activity concentration (AC50) is 17.7 µM. Take `O=C(CCl)Nc1cccc(Oc2ccccc2)c1`: the AC50 was 6.15 µM. On to `O=C(NC1CCCCC1)C(c1cccnc1)N(C(=O)CCl)c1cccc(Cl)c1` (stereo not drawn), for which the AC50 is 3 µM.

As to `CC(C)C[C@H](N)c1nnc(S(=O)(=O)Cc2ccc(F)cc2)o1`, the AC50 is > 38 µM (inactive). `NC1=NN(c2cccc(C(=O)O)c2)C(=O)C1`: the AC50 was 29.4 µM. For the molecule `Cc1cccc(S(=O)(=O)C(C#N)c2nc3ccccc3nc2N2CCCC2)c1` (stereo not drawn), the AC50 is > 38 µM (inactive). As to `CCOC(=O)c1nnn(-c2nonc2-n2cccc2)c1CCl`, the AC50 was 26.6 µM. For `O=C(NC1=C(NC2CCS(=O)(=O)C2)C(=O)c2ccccc2C1=O)c1ccccc1` (stereo not drawn), the AC50 is 1.17 µM. On to `CC1=NNC(=O)/C1=C\c1cn(-c2ccccc2)nc1-c1ccccc1`, for which the AC50 is 8.49 µM.

With `CCC(C)Nc1nc(Cl)nc(N(C#N)CN2C(=O)c3ccccc3S2(=O)=O)n1` (stereo not drawn), the AC50 was > 38 µM (inactive).

As to `CCNC(=O)c1ccccc1-c1nc(-c2ccccc2)no1`, the AC50 is > 38 µM (inactive).

`COc1ccc(CC(=O)N/N=C(/C)CC(=O)N(C)c2ccccc2)cc1`: the AC50 was > 38 µM (inactive). Regarding `Nc1ccc(N2CCCCC2)c2nonc12`, the AC50 is 15.9 µM.

`CS/C(=C\[N+](=O)[O-])Nc1ccc(Cl)cc1`: the AC50 was > 38 µM (inactive). Regarding `N#CC1=C(N)Oc2n[nH]c(-c3cccs3)c2C1c1ccsc1` (stereo not drawn), the AC50 is 3.98 µM. Take `N#CC1=C(N)Oc2n[nH]c(-c3cccs3)c2C1c1ccccc1C(=O)O` (stereo not drawn): the AC50 is 20.9 µM.

Turning to `COc1ccc(-c2cc(=O)n(CCC#N)[nH]2)cc1`, the AC50 was 3.3 µM.

Turning to `O=Cc1ccc(Sc2nnc(-c3ccccc3)o2)c([N+](=O)[O-])c1`, the AC50 was 21 µM. For `COC(=O)c1ccc(C(c2c(C)[nH][nH]c2=O)c2c(C)[nH][nH]c2=O)cc1`, the AC50 was > 38 µM (inactive).

For `CCCCCCN(C(=O)CCl)c1ccccc1`, the AC50 was 3.5 µM. On to `c1ccc(-c2nc(N3CCCCCC3)nc(-n3ccnc3)n2)cc1`, for which the AC50 was > 38 µM (inactive). Regarding `O=C1C=C(Nc2ccccc2O)c2ccccc2C1=O`, the AC50 was > 38 µM (inactive). The value for `O=C(CCl)Nc1cccc(-c2cnc3ccccc3n2)c1` was 16.5 µM; that for `COCc1[nH]nc2c1C(c1ccccc1OC)C(C#N)=C(N)O2` (stereo not drawn) was 36.5 µM. For `CC1CCCN(C(=O)COc2ccc(NC(=O)c3cccs3)cc2)C1` (stereo not drawn), the AC50 is > 38 µM (inactive). `O=C(/C=C/c1cccs1)Nc1scc(-c2ccccc2)c1C(=O)O`: the AC50 was 23.7 µM. Turning to `C=CCn1c(-c2cccnc2Cl)nc2ccccc21`, the AC50 is > 38 µM (inactive). With `COc1ccc2ccc3c(c2c1)N=CC1(O3)N(C)c2ccccc2C1(C)C` (stereo not drawn), the AC50 was 4.49 µM.

For the molecule `O=C(CCl)Nc1cc(-c2ccccc2)nn1-c1ccccc1`, the half-maximal activity concentration (AC50) was 9.05 µM.

With `O=C(Nc1ccc(Cl)cc1)/C(=C/c1cccc(O)c1)c1nc2ccccc2s1`, the AC50 was 3.1 µM. Take `Cc1cccc(CSC(Nc2ccc(F)cc2)=C(C#N)C#N)c1`: the AC50 is > 38 µM (inactive). On to `N=c1c2c(-c3ccccc3)c(-c3ccccc3)n(Cc3ccco3)c2ncn1Cc1ccccc1`, for which the half-maximal activity concentration (AC50) is 5.8 µM.

Consider `Cn1c(=O)c([N+](=O)[O-])c(-n2ccnc2)c2ccccc21`, for which the AC50 is > 38 µM (inactive). The value for `CCOC(=O)c1oc2nc(CC(C)C)c3c(c2c1N)CCC3` was > 38 µM (inactive); that for `COc1cccc(N(C(=O)CCl)C(C(=O)NCCc2ccccc2)c2cccs2)c1` (stereo not drawn) was 1.29 µM; that for `CS(=O)(=O)c1ccc(C(=O)OCC(=O)NC23CC4CC(CC(C4)C2)C3)cc1[N+](=O)[O-]` was > 38 µM (inactive). Regarding `Nc1nc(C(=O)N2CCOCC2)nn1C(=O)c1ccc(Cl)cc1`, the AC50 was > 38 µM (inactive). Turning to `Cc1[nH]n(C(C)(C)C)c(=O)c1Sc1ccccc1`, the AC50 was > 38 µM (inactive). The value for `Cc1nc([N+](=O)[O-])c(Sc2nc3ccccc3[nH]2)n1Cc1ccccc1` was > 38 µM (inactive).

`CCOC(=O)c1nn(-c2ccccc2C)c(=O)c2c(N)scc12`: the AC50 is > 38 µM (inactive). Take `Cc1ccc(NC2=C(Cl)C(=O)OC2OC(=O)c2ccco2)cc1C` (stereo not drawn): the AC50 is > 38 µM (inactive).

With `CCCCCCCCCCOC(=O)Cn1c(COc2cccc(OC)c2)[n+](C)c2ccccc21`, the AC50 is 9.12 µM. To `N#C/C(=C\c1cc(Cl)c(OCc2ccc(Cl)cc2)c(Cl)c1)C(N)=O` belongs 9.11 µM. The value for `Cc1ccc(SCC2=NNC(=O)C2)cc1` was 31.5 µM; that for `CCOC(=O)c1c(C)oc2c1c1c(c3ccccc32)OCN(CCCC(=O)O)C1` was 4.93 µM. The value for `CC(=O)c1cc(O)c2ccccc2c1O` was 13.3 µM; that for `COc1ccc(C2=NN(c3ccccc3)C(=O)/C2=C\c2ccc(O)c(OC)c2)cc1` was 3.62 µM.

Consider `Cc1ccc(C2C(C#N)=C(N)Oc3nc(-c4ccccc4)[nH]c32)o1` (stereo not drawn), for which the AC50 is > 38 µM (inactive). For the molecule `CC1=NN(c2ccccc2)C(=O)/C1=C\c1cn(CCC#N)nc1-c1ccc(Cl)cc1`, the AC50 was > 38 µM (inactive).

`O=S(=O)(c1ccc(Cl)c(Cl)c1)c1snnc1-c1ccccc1`: the AC50 was 9.72 µM. As for `O=C1C(=O)c2ccccc2-c2ccccc21`, the AC50 was 16.8 µM. Consider `O=C(CCN1C(=O)/C(=C\c2ccccc2F)SC1=S)Nc1ccc(C(=O)O)c(O)c1`, for which the AC50 is 14.7 µM.

With `Cc1cccc(Nc2nc(NCc3ccco3)c3ccccc3n2)c1`, the AC50 was 8.01 µM. On to `COC(=O)c1c(C)oc2ccc(N(C(=O)c3ccncc3)S(=O)(=O)c3ccc4ccccc4c3)cc12`, for which the AC50 is > 38 µM (inactive). The value for `NC(=O)C1CCN(C2=C(Cl)C(=O)c3ccccc3C2=O)CC1` was 1.97 µM; that for `Cc1cccn2c(CNCC3(c4ccccc4)CCCC3)c(C(=O)N3CCOCC3)nc12` was > 38 µM (inactive); that for `O=c1c(Cl)nc2cc(Cl)ccc2n1CCNc1ncc(C(F)(F)F)cc1Cl` was > 38 µM (inactive). As for `CCOC(=O)C(C#N)C(c1cccnc1)c1c(C)[nH][nH]c1=O` (stereo not drawn), the AC50 is > 38 µM (inactive).

With `O=C(O)C1Nc2c(O)cc(Cl)c([N+](=O)[O-])c2C2C=CCC12` (stereo not drawn), the AC50 was 10.9 µM.

Regarding `O=C(OCn1ncc(Cl)c(Cl)c1=O)c1ccc(C(F)(F)F)cc1`, the AC50 was 3.99 µM. As to `O=C(CCCN1C(=O)/C(=C/c2cccs2)SC1=S)Nc1ccc(O)cc1`, the AC50 is > 38 µM (inactive).

As to `Cc1ccc(NC2=C(N3CCOCC3)C(=O)c3ccccc3C2=O)cc1`, the AC50 is 11.3 µM.

In the case of `O=C(CCl)N(C/C=C/c1ccccc1)c1ccc2c(c1)OCCO2`, the AC50 was 1.12 µM.

Regarding `O=C1CC(CSc2ccc(Cl)cc2)=NN1`, the AC50 is 25 µM. Turning to `COc1cc(C(C(=O)NC2CCCCC2)N(CCN2CCOCC2)C(=O)C2COc3ccccc3O2)cc(OC)c1OC` (stereo not drawn), the AC50 was > 38 µM (inactive). The value for `Cc1ccc(C)c(NC(=O)CSc2n[nH]c(-c3ccccn3)n2)c1` was > 38 µM (inactive); that for `COC(=O)c1cc([N+](=O)[O-])c(-n2ccnc2)c([N+](=O)[O-])c1` was > 38 µM (inactive); that for `Cc1ccc(NC(=O)c2cnc(SCC(=O)NCC3CCCO3)n(C)c2=O)cc1C` (stereo not drawn) was > 38 µM (inactive). For `Cc1[nH][nH]c(=O)c1C(c1cc(Br)ccc1O)c1c(C)[nH][nH]c1=O`, the AC50 is 8.35 µM.
